Measurements: PubChem BioAssay AID652053 (Broad Institute, 2013)

Tested on: Huh7 psiCHECK-miR122 Renilla luciferase reporter, 48 h
Assay: suppression of miR-122 activity, Renilla luciferase sensor – cell-based, Huh7 psiCHECK-miR122, cherry-pick, dose response (AID 652053)

Compound	AC40 [µM]
COc1ccc(C(=O)Nc2cccc(S(=O)(=O)NCc3ccco3)c2)cc1	0.822
CC(=O)N1CCOc2ccc(S(=O)(=O)NCCc3cccc(C)c3)cc21	4.01
O=C(Nc1cccc(S(=O)(=O)Nc2ccc(Cl)cc2)c1)c1ccccn1	1.8
CCN1C(=O)c2cccc3c(S(=O)(=O)N(C(=O)c4cccnc4)c4ccc(OC)cc4)ccc1c23	1.21
O=C(COc1ccc(S(=O)(=O)NC2CCCCC2)cc1)NC1CCCC1	8.46
COc1ccc(S(=O)(=O)Nc2cc(Cl)ccc2OC)cc1	2.68
COc1ccccc1NS(=O)(=O)c1cc(NC(=O)Nc2ccc(Cl)cc2Cl)ccc1N1CCCCC1	1.49
COc1ccc(NC(=O)c2cc(C)nc3ccccc23)cc1S(=O)(=O)Nc1ccccc1Cl	2.33
Cc1ccc(C(C)C)cc1S(=O)(=O)NC1CC(C)(C)NC(C)(C)C1	8.18
COc1ccc(N(C(=O)c2ccncc2)S(=O)(=O)c2ccc3c4c(cccc24)C(=O)N3C)cc1	7.01
C[C@H]1CN([C@@H](C)CO)C(=O)c2cccc(NC(=O)C3CCCCC3)c2O[C@@H]1CN(C)Cc1ccc(C(F)(F)F)cc1	0.547
COc1ccccc1NS(=O)(=O)c1cc(NC(=O)c2cccnc2)ccc1N1CCCCC1	< 0.26
COc1cc(OC)c(NS(=O)(=O)c2ccc(Cl)c(C(=O)OC(C)C(=O)N3CCCC3)c2)cc1Cl (stereo not given)	8.08
COc1ccccc1CNS(=O)(=O)c1cc(-c2cc(C)no2)ccc1C(C)C	4.78
Cc1ccc(S(=O)(=O)Nc2ccc3nc(N)sc3c2)cc1	2
COc1ccc(C)cc1S(=O)(=O)NC1CCCC1	6.24
COc1ccc(NS(=O)(=O)c2cc3c(cc2C)N(C)CCO3)c(OC)c1	1.81
COc1ccc(S(=O)(=O)N2CC[C@@H]3[C@H](CO)N(C)c4ccc(-c5ccc(F)cc5)cc4[C@@H]32)cc1	7.49
CCN(CC)S(=O)(=O)c1cc(NS(=O)(=O)c2cc(Cl)ccc2Cl)ccc1C	4.19
Cc1ccccc1OC1C(=O)N(Cc2ccc3c(c2)OCO3)C1c1sccc1C (stereo not given)	13.7
O=C(CN1c2ccccc2Sc2ccccc21)NNC(=O)Nc1cccc(Cl)c1	17.1
COc1ccc(NS(=O)(=O)c2cc(NC(=O)c3ccco3)ccc2N2CCCCC2)cc1	< 0.26
COc1ccc(S(=O)(=O)Nc2ccc(-c3ccc4nnc(C)n4n3)cc2)c(OC)c1	4.03
Cc1ccc(S(=O)(=O)N2CCC3(CC2)OCCN3S(=O)(=O)c2cccs2)cc1	3.63
CC(C)(C)NS(=O)(=O)c1ccc(NC(=S)NC(=O)C2CC2)cc1	1.86

Compound	AC40 [µM]
CCC1=Nc2cc(C(=O)NCc3ccco3)ccc2Sc2ccc(C)cc21	4.49
CC(=O)N1c2c(cc(Br)cc2S(=O)(=O)NCC2COc3ccccc3O2)CC1C (stereo not given)	4.53
COc1ccc(C2=Nn3c(nnc3-c3ccccc3OC)SC2)cc1OC1CCOC1 (stereo not given)	8.29
COc1ccc(NS(=O)(=O)c2ccc(N3CCOCC3)c(NC(=O)c3ccc(F)cc3)c2)cc1	7.87
COc1ccc(NS(=O)(=O)c2cc3c(cc2C)N(C)CCO3)cc1	2.04
Cc1ccccc1NS(=O)(=O)c1cc(C(=O)N2CCc3ccccc3C2)ccc1C	20.4
O=C(Nc1cc(S(=O)(=O)Nc2ccccc2F)ccc1Cl)c1ccc(F)cc1F	7.6
S=C(NCc1ccncc1)Nc1cc(Cl)cc(Cl)c1	5.2
C[C@@H]1CN([C@@H](C)CO)C(=O)c2cccc(N(C)C)c2O[C@@H]1CN(C)Cc1ccc(C(=O)Nc2ccccc2N)cc1	3.25
Cc1cc(C)c(C)c(S(=O)(=O)Nc2ccc(O)cc2)c1C	6.69
NC(=O)Cn1cc(/C=N\NS(=O)(=O)c2ccc(Cl)cc2)c2ccccc21	3.75
CCOC(=O)c1ccc(S(=O)(=O)NC2CCCCCCC2)n1C	3.76
O=C(Nc1ccccc1O)c1ccc(NS(=O)(=O)c2cccc3cccnc23)cc1	14.8
O=C(CSc1nnc(-c2cc3ccccc3cc2O)n1Cc1ccco1)c1ccc(F)cc1	5.74
CCOCC(=O)Nc1c(C(=O)N2CCN(c3ncccn3)CC2)oc2ccccc12	0.431
O=S(=O)(Nc1cccc(-n2cnnn2)c1)c1cc(Br)ccc1Br	4.94
O=S(=O)(c1ccccc1)N(CC(O)COc1ccccc1)c1ccccc1 (stereo not given)	18.9
COc1ccc(S(=O)(=O)N(CCc2ccccc2)CC(=O)N2CCOCC2)cc1	17.1
C[C@@H]1CN([C@H](C)CO)C(=O)c2cccc(NC(=O)c3nc4ccccc4s3)c2O[C@@H]1CN(C)Cc1ccc(C(=O)Nc2ccccc2N)cc1	17.7
CC(=O)c1c(C)[nH]c(C(=O)N(CCc2ccccc2)Cc2ccccc2)c1C	30.8
COc1ccc(S(=O)(=O)N(C)C[C@H]2Oc3cc(C#CC4CCCC4)ccc3S(=O)(=O)N([C@H](C)CO)C[C@@H]2C)cc1	1.58
CC(NC(=S)Nc1ccc(Cl)cc1Cl)C(c1cccs1)N1CCCC1 (stereo not given)	23.8
Clc1ccc2[nH]cc(-c3nnnn3-c3ccc4ccccc4c3)c2c1	6.75
Cc1ccc(S(=O)(=O)Nc2cccc(-c3cn4ccsc4n3)c2)cc1	1.81
CCOc1cc(C)c(Cl)cc1S(=O)(=O)NCc1ccco1	1.79

Compound	AC40 [µM]
COCCNC(=O)C[C@@H]1CC[C@H]2[C@H](COc3ccc(NC(=O)Cc4ccccc4)cc3C(=O)N2C)O1	1.34
CCOC(=O)N1CCN(S(=O)(=O)c2cc(OCC)ccc2OCC)CC1	4.56
Cc1cc(S(=O)(=O)NC2CCCCC2)c(C)s1	1.44
COc1ccc(N(CC(=O)Nc2cc(C)on2)S(=O)(=O)c2cc(C)ccc2C)cc1	5.67
CCCC(=O)NC(=S)Nc1ccc(S(=O)(=O)Nc2ccc(OCC)cc2)cc1	1.42
Cc1cccc(NS(=O)(=O)c2cc3c4c(c2)C(C)C(=O)N4CCC3)c1 (stereo not given)	1.93
CCOc1cc(C)c(Cl)cc1S(=O)(=O)NCC1CCCO1 (stereo not given)	1.2
COc1ccccc1C(=O)Nc1ccc2c(c1)C(=O)N(C)[C@H]1CC[C@@H](CC(=O)NCc3ccc(Cl)c(Cl)c3)O[C@H]1CO2	0.359
NC(=O)Cn1cc(/C=N\NS(=O)(=O)c2ccc(F)cc2)c2ccccc21	3.22
CCOc1cc(C)c(S(=O)(=O)Nc2ccc(Cl)cn2)cc1C	4.04
Cc1ccc(NS(=O)(=O)c2csc(C(N)=O)c2)cc1C	3.14
CN(C)Cc1ccccc1CNC(=O)c1cccc(S(=O)(=O)Nc2ccc3c(c2)OCO3)c1	2.15
CCOC(=O)Nc1ccc(NS(=O)(=O)c2ccc(C)cc2)cc1	8.82
Cc1c(C)c(C)c(S(=O)(=O)NCCc2ccccn2)c(C)c1C	1.69
Cc1ccc(C)c(S(=O)(=O)Nc2ccc3scnc3c2)c1	0.899
CCCC(=O)Nc1nc2ccc(S(=O)(=O)N3CCCCC3)cc2s1	8.84
O=C(c1ccccc1F)N1C[C@H]2[C@@H](c3ccccc31)[C@@H](CO)N2C(=O)c1ccc(F)cc1	2.4
COc1ccc(NS(=O)(=O)c2ccc(OC)c3ccccc23)cn1	2.67
Cc1ccc(NC(=O)CNC(=O)c2cccs2)cc1S(=O)(=O)Nc1ccc(Cl)cc1	3.31
COc1ccc(CNS(=O)(=O)c2cc(-c3cc(C)no3)ccc2C(C)C)cc1	3.69
Cc1ccc(-c2n[nH]c(=O)c3ccccc23)cc1S(=O)(=O)NCCN1CCOCC1	15.4
Cc1cc(S(=O)(=O)NCC2CC2)c(Cl)cc1Cl	2.7
COc1cccc(S(=O)(=O)Nc2ccc(C(O)(C(F)(F)F)C(F)(F)F)cc2)c1	4.24
CC(=O)N1CCc2cc(Br)cc(S(=O)(=O)NCc3ccc(Cl)cc3)c21	4.29
COc1ccccc1S(=O)(=O)Nc1cccc(S(=O)(=O)N2CCCC2)c1	1.26

Compound	AC40 [µM]
COc1ccc(S(=O)(=O)Nc2ccc3c(c2)CC(=O)N([C@H](C)CO)C[C@H](C)[C@H](CN(C)Cc2ccc(C(=O)Nc4ccccc4N)cc2)O3)cc1	10.5
Cc1cccc(NS(=O)(=O)c2cc3c(cc2C)NC(=O)CO3)c1	2.36
CCCNC(=O)NNC(=O)c1cc(-c2ccc3c(c2)OCO3)nc2ccccc12	2.65
Cc1ccccc1S(=O)(=O)N1CC[C@@H]2[C@@H](CO)N(C)c3ccc(-c4ccccc4)cc3[C@@H]21	4.05
COc1ccc(NS(=O)(=O)c2cc(OC)ccc2OC)cc1	5.31
COc1ccc(NS(=O)(=O)c2ccc(Cl)c(N)c2)cc1Br	3.88
CN1c2ccc(-c3cccc(F)c3)cc2[C@H]2[C@H](CCN2C(=O)c2ccccc2F)[C@H]1CO	0.528
O=C(c1ccccc1F)N1CC[C@@H]2[C@@H](CO)Nc3ccc(-c4cccc(F)c4)cc3[C@@H]21	1.29
COc1ccc(C(=O)N2C[C@H]3[C@@H](c4ccccc42)[C@@H](CO)N3C(=O)c2ccc(F)cc2)cc1	0.631
O=C(CN(C1CCCCC1)S(=O)(=O)c1ccc(F)cc1)Nc1ccc2c(c1)OCO2	6.36
O=C(CN1CCOCC1)Nc1ccc(Br)cc1C(=O)c1ccccc1	1.64
O=S(=O)(NCc1cccs1)c1cccc(S(=O)(=O)N2CCCCC2)c1	6.72
COc1cc(C)c(C(C)C)cc1S(=O)(=O)NC1CC(C)(C)NC(C)(C)C1	0.59
C[C@H](CO)N1C[C@H](C)[C@H](CN(C)Cc2ccc(C(=O)Nc3ccccc3N)cc2)Oc2ccc(NS(=O)(=O)c3ccc(Cl)cc3)cc2CC1=O	7.89
C[C@H](CO)N1C[C@H](C)[C@@H](CN(C)Cc2ccc3c(c2)OCO3)Oc2c(NC(=O)NC3CCCCC3)cccc2C1=O	2.53
Cc1ccc(C)c(S(=O)(=O)NCCCc2ccccc2)c1	3.15
O=C(NCc1ccccn1)c1cccc(NS(=O)(=O)c2cccc(F)c2)c1	5.83
CN1C(=O)c2cc(NC(=O)NCc3ccccc3)ccc2OC[C@@H]2O[C@@H](CC(=O)NCC3CCCCC3)CC[C@@H]21	3.21
Cc1ccc(S(=O)(=O)c2cccc(S(=O)(=O)N3CCCC3)c2)cc1S(=O)(=O)N1CCCC1	9.91
COc1ccc(OC)c(S(=O)(=O)NCc2ccccc2)c1	0.781
CCCCNS(=O)(=O)c1ccc2nc(SCC(N)=O)[nH]c2c1	6.07
Cc1cc(C(=O)Nc2cccc3c2O[C@@H](CN(C)CC2CCCCC2)[C@@H](C)CN([C@@H](C)CO)C3=O)n(C)n1	5.85
O=S(=O)(Nc1ccc2cn[nH]c2c1)c1cc(Br)ccc1Br	4.32
Cc1ccc(S(=O)(=O)Nc2ccc3c(c2)CC(=O)N([C@@H](C)CO)C[C@@H](C)[C@H](CN(C)Cc2ccc(C(=O)Nc4ccccc4N)cc2)O3)cc1	32.4
COc1ccc(NS(=O)(=O)c2cc(C)ccc2OC)cc1OC	3.76
